No end group written: not given here.
Legend:
C. albicans ATCC90028 = assay: CO-ADD antifungal screening, MIC; type: cell-based, Candida albicans; conditions: yeast nitrogen base, 2.5 × 10^3 CFU/mL, 35 °C 24 h, OD530, n=2
[1] = system: human dermal microvascular endothelial cells (HDMEC); assay: HDMEC cytotoxicity assay; type: cell-based; conditions: concentration at 50% cytotoxicity
[2] = system: human embryonic kidney cells (HEK 293); assay: HEK 293 cytotoxicity assay; type: cell-based; conditions: concentration at 50% cytotoxicity, CO-ADD
E. coli = conditions: ref [58]; cited from earlier work
S. aureus = conditions: ref [58]; cited from earlier work

Substance	MIC C. albicans ATCC90028* (C. albicans ATCC90028) [µM]	HDMEC (CC50) [1] [µM]	HEK293 (CC50) [2] [µM]	MIC against E. coli (E. coli) [µM]	MIC against S. aureus (S. aureus) [µM]
GLFDIVKKVVGALG-NH2 [Au2.2d2, reference compound]	>23	64	–	–	–
GLFDIVKKVVGALK-NH2 [compound 9]	>22	103	–	–	–
GLFDIVKKVVGLLK-NH2 [compound 8]	>21	28	–	–	–
GLFDIVKKVVKLLK-NH2 [compound 7]	>20	236	–	–	–
GLFKLLKKLLKLLK-NH2 [compound 2]	>20	2	>19	–	–
KLLKLLKKLLGALG-NH2 [compound 16]	11	8	7	–	–
KLLKLLKKLLKALG-NH2 [compound 17]	20	4	>20	–	–
KLLKLLKKLLKLLK-NH2 [Klk14, reference compound]	9	3	10	–	–
KLLKLLKKLVGALG-NH2 [compound 15]	21	25	12	–	–
KLLKLVKKVVGALG-NH2 [compound 13]	>22	533	–	–	–
WWKRWKKLRRIFLML	–	–	–	4	4
